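Exposure lasted 48 hours, with cells grown in 96-well plates and compounds tested at five concentrations. GI50 is the concentration that inhibits growth by half. The concentration for full growth arrest is given as TGI.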
Legend:
Assay in all cases: growth of human tumour cells (NCI), 48 h
NCI-H226 lung = tested on: NCI-H226 lung
NCI-H23 lung = tested on: NCI-H23 lung
NCI-H460 lung = tested on: NCI-H460 lung
NCI-H522 lung = tested on: NCI-H522 lung
OVCAR-3 ovarian = tested on: OVCAR-3 ovarian
OVCAR-4 ovarian = tested on: OVCAR-4 ovarian
OVCAR-5 ovarian = tested on: OVCAR-5 ovarian
OVCAR-8 ovarian = tested on: OVCAR-8 ovarian
PC-3 prostate = tested on: PC-3 prostate
RXF 393 renal = tested on: RXF 393 renal
SF-268 CNS = tested on: SF-268 CNS
SF-295 CNS = tested on: SF-295 CNS
SF-539 CNS = tested on: SF-539 CNS
SK-MEL-2 melanoma = tested on: SK-MEL-2 melanoma
SK-MEL-28 melanoma = tested on: SK-MEL-28 melanoma
SK-OV-3 ovarian = tested on: SK-OV-3 ovarian
SN12C renal = tested on: SN12C renal
SNB-19 CNS = tested on: SNB-19 CNS
SNB-75 CNS = tested on: SNB-75 CNS
SR leukemia = tested on: SR leukemia
SW-620 colon = tested on: SW-620 colon
T-47D breast = tested on: T-47D breast
TK-10 renal = tested on: TK-10 renal
U251 CNS = tested on: U251 CNS
UACC-257 melanoma = tested on: UACC-257 melanoma
UACC-62 melanoma = tested on: UACC-62 melanoma
UO-31 renal = tested on: UO-31 renal

Question: Which TGI (NCI-H226 lung) does the source give for COc1ccccc1N1CCN(C2=NN=C(c3cccc(Cl)c3)c3ccccc3C2)CC1 here?
Answer: > 36300 nM

Question: And the GI50 (NCI-H23 lung)?
Answer: 571 nM

Question: What about the TGI (NCI-H23 lung) of the same compound?
Answer: > 100000 nM

Question: And the GI50 (NCI-H460 lung)?
Answer: 351 nM

Question: What about the TGI (NCI-H460 lung) of the same compound?
Answer: 1940 nM

Question: What about the GI50 (NCI-H522 lung) of the same compound?
Answer: 270 nM

Question: What about the GI50 (OVCAR-3 ovarian) of the same compound?
Answer: 282 nM

Question: And the TGI (OVCAR-3 ovarian)?
Answer: 793 nM

Question: What about the GI50 (OVCAR-4 ovarian) of the same compound?
Answer: 1190 nM

Question: What about the TGI (OVCAR-4 ovarian) of the same compound?
Answer: > 100000 nM

Question: And the GI50 (OVCAR-5 ovarian)?
Answer: 498 nM

Question: What about the TGI (OVCAR-5 ovarian) of the same compound?
Answer: > 37200 nM

Question: And the GI50 (OVCAR-8 ovarian)?
Answer: 438 nM

Question: And the TGI (OVCAR-8 ovarian)?
Answer: > 100000 nM

Question: And the GI50 (PC-3 prostate)?
Answer: 443 nM

Question: And the TGI (PC-3 prostate)?
Answer: > 33900 nM

Question: What about the GI50 (RXF 393 renal) of the same compound?
Answer: 270 nM

Question: And the TGI (RXF 393 renal)?
Answer: 2760 nM

Question: And the GI50 (SF-268 CNS)?
Answer: 566 nM

Question: What about the TGI (SF-268 CNS) of the same compound?
Answer: > 100000 nM

Question: What about the GI50 (SF-295 CNS) of the same compound?
Answer: 334 nM

Question: And the TGI (SF-295 CNS)?
Answer: 3440 nM

Question: And the GI50 (SF-539 CNS)?
Answer: 277 nM

Question: And the TGI (SF-539 CNS)?
Answer: 847 nM

Question: And the GI50 (SK-MEL-2 melanoma)?
Answer: 743 nM

Question: And the TGI (SK-MEL-2 melanoma)?
Answer: > 45400 nM

Question: What about the GI50 (SK-MEL-28 melanoma) of the same compound?
Answer: 2470 nM

Question: And the TGI (SK-MEL-28 melanoma)?
Answer: > 100000 nM

Question: And the GI50 (SK-OV-3 ovarian)?
Answer: 637 nM

Question: And the TGI (SK-OV-3 ovarian)?
Answer: 97400 nM

Question: What about the GI50 (SN12C renal) of the same compound?
Answer: 474 nM

Question: What about the TGI (SN12C renal) of the same compound?
Answer: > 100000 nM

Question: What about the GI50 (SNB-19 CNS) of the same compound?
Answer: 420 nM

Question: What about the TGI (SNB-19 CNS) of the same compound?
Answer: > 100000 nM

Question: And the GI50 (SNB-75 CNS)?
Answer: 491 nM

Question: And the TGI (SNB-75 CNS)?
Answer: 20300 nM

Question: What about the GI50 (SR leukemia) of the same compound?
Answer: 260 nM

Question: And the TGI (SR leukemia)?
Answer: > 100000 nM

Question: And the GI50 (SW-620 colon)?
Answer: 439 nM

Question: What about the TGI (SW-620 colon) of the same compound?
Answer: > 100000 nM

Question: What about the GI50 (T-47D breast) of the same compound?
Answer: 1130 nM

Question: What about the TGI (T-47D breast) of the same compound?
Answer: > 100000 nM

Question: And the GI50 (TK-10 renal)?
Answer: 2320 nM

Question: What about the TGI (TK-10 renal) of the same compound?
Answer: > 43200 nM

Question: What about the GI50 (U251 CNS) of the same compound?
Answer: 383 nM

Question: What about the TGI (U251 CNS) of the same compound?
Answer: > 100000 nM

Question: And the GI50 (UACC-257 melanoma)?
Answer: 2370 nM

Question: And the TGI (UACC-257 melanoma)?
Answer: > 100000 nM

Question: What about the GI50 (UACC-62 melanoma) of the same compound?
Answer: 509 nM

Question: And the TGI (UACC-62 melanoma)?
Answer: > 100000 nM

Question: And the GI50 (UO-31 renal)?
Answer: 708 nM

Question: And the TGI (UO-31 renal)?
Answer: > 100000 nM

— PubChem BioAssay (NCI)
